From US20170008888A1 (KYORIN PHARMACEUTICAL CO., LTD., priority 2014, published 2017)
Values belong to the compound of their own block, whether it stands above or below them.

Assays:
Format in all cases: binding
AMPKa1 or AMPKa2 = assay: Probe-based (AX9989) kinase profiling in Jurkat lysate: AMPKa1 or AMPKa2
Summary of the method: (§1)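 Percent inhibition was derived from reduced LC/MS fragment intensities of probe-labeled peptides relative to compound-free controls. Before labeling with 5 μM AX9989, Mn2+-supplemented (20 mM) Jurkat lysate was exposed to compound for 15 min at room temperature.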

TAO2 = target: T1, TAO2 (Homo sapiens, UniProt Q9UL54); assay: Probe-based (AX9989) kinase profiling in Jurkat lysate: TAO2; conditions: read-out: Kinase inhibition % at indicated screening concentration: TAO2; for inhibition at 1 µM: screening concentration 1.0 μM; for inhibition at 0.1 µM: screening concentration 0.1 μM
T1 construct: screened for activity against several kinases in Jurkat cells; endogenous in cells; host or cells: Jurkat cell lysate
T1 sequence (Q9UL54 1-1235): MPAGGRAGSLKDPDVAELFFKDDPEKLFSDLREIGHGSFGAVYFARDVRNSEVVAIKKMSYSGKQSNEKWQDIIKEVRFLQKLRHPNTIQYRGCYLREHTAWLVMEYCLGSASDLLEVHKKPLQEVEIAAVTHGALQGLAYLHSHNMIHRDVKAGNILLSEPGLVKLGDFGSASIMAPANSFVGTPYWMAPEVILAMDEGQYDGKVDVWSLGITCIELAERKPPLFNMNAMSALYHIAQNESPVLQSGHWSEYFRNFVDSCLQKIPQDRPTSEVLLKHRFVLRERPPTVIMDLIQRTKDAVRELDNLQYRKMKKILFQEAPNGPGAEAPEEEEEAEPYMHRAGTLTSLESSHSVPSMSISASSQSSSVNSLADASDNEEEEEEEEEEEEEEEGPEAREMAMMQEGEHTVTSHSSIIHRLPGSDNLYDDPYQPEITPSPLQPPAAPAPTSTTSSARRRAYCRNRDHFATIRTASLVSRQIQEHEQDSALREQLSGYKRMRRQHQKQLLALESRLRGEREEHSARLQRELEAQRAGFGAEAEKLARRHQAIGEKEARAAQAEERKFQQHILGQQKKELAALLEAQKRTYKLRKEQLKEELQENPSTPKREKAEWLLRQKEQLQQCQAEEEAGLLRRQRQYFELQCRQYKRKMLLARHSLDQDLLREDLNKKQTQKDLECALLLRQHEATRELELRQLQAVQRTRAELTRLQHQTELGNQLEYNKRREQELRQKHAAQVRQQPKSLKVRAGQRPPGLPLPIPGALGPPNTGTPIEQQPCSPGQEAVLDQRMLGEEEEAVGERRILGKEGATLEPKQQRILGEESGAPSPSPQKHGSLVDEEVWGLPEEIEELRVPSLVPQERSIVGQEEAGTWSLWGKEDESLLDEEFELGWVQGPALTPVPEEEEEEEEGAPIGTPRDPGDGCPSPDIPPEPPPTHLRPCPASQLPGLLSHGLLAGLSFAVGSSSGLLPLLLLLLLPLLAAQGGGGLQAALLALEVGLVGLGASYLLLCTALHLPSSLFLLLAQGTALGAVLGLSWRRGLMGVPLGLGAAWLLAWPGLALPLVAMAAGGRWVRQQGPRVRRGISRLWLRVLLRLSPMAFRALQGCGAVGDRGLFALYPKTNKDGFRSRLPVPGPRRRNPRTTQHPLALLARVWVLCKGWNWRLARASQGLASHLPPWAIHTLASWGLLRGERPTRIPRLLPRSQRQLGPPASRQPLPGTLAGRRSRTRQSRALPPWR
Summary of the method: as §1

[1] = target: T2, BRD4 bromodomain domain I [BRD4(1)] (Homo sapiens, UniProt O60885); assay: BRD4 bromodomain domain 1 inhibition assay (TR-FRET); conditions: screening concentration 10 μM
T2 construct: BRD4 bromodomain domain I [BRD4(1)]; purchased Cayman Chemicals
Summary of the method: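 0.5% DMSO, in triplicate, using Cayman BRD4(1) TR-FRET protocol with slight modification. 670/620 nm ratio normalized to 10 μM JQ1, with DMSO control set as 0% inhibition.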

Structure (SMILES): CCOc1cc(C(=O)N2CCN(CCOCCO)CC2)ccc1Nc1cc2c(cn1)N(C)C(=O)c1ccccc1N2C [Compound 6]
- Kinase inhibition % at indicated screening concentration: AMPKa1 or AMPKa2 (AMPKa1 or AMPKa2; screening concentration 1.0 μM): E (E is ≦35%)
- inhibition at 1 µM (TAO2): ≤ 35%
- inhibition at 10 µM [1]: > 85%

Structure (SMILES): CCOc1cc(C(=O)N2CCCN(C)CC2)ccc1Nc1cc2c(cn1)N(C)C(=O)c1ccccc1N2C [Compound 8]
- Kinase inhibition % at indicated screening concentration: AMPKa1 or AMPKa2 (AMPKa1 or AMPKa2; screening concentration 1.0 μM): E (E is ≦35%)
- inhibition at 1 µM (TAO2): ≤ 35%
- inhibition at 10 µM [1]: 70 to 85%

Structure (SMILES): CCOc1cc(C(=O)N2CCN(CC3CC3)CC2)ccc1Nc1cc2c(cn1)N(C)C(=O)c1ccccc1N2C [Compound 10]
- Kinase inhibition % at indicated screening concentration: AMPKa1 or AMPKa2 (AMPKa1 or AMPKa2; screening concentration 0.1 μM): E (E is ≦35%)
- inhibition at 0.1 µM (TAO2): ≤ 35%
- inhibition at 10 µM [1]: 70 to 85%

Structure (SMILES): CCOc1cc(C(=O)N2CCC(N3CCCC3)CC2)ccc1Nc1cc2c(cn1)N(C)C(=O)c1ccccc1N2C [Compound 46, 3-(2-Ethoxy-4-(4-(pyrrolidin-1-yl)piperidine-1-carbonyl)phenylamino)-5,11-dimethyl-5H-benzo[e]pyrido[3,4-b][1,4]diazepin-10(11H)-one]
- Kinase inhibition % at indicated screening concentration: AMPKa1 or AMPKa2 (AMPKa1 or AMPKa2; screening concentration 1.0 μM): E (E is ≦35%)
- inhibition at 1 µM (TAO2): ≤ 35%
- inhibition at 10 µM [1]: > 85%

Structure (SMILES): Cc1cc(CN2CC[C@@H](N3CCCC3)C2)ccc1Nc1cc2c(cn1)N(C)C(=O)c1ccccc1N2C [Compound 49]
- Kinase inhibition % at indicated screening concentration: AMPKa1 or AMPKa2 (AMPKa1 or AMPKa2; screening concentration 0.1 μM): E (E is ≦35%)
- inhibition at 0.1 µM (TAO2): ≤ 35%
- inhibition at 10 µM [1]: > 85%

Structure (SMILES): CCOc1cc(C(N)=O)ccc1Nc1cc2c(cn1)N(C)C(=O)c1ccccc1N2C [Compound 51]
- Kinase inhibition % at indicated screening concentration: AMPKa1 or AMPKa2 (AMPKa1 or AMPKa2; screening concentration 0.1 μM): E (E is ≦35%)
- inhibition at 0.1 µM (TAO2): ≤ 35%
- inhibition at 10 µM [1]: < 70%

Results, then the compound that gave them:

- Kinase inhibition % at indicated screening concentration: AMPKa1 or AMPKa2 (AMPKa1 or AMPKa2; screening concentration 1.0 μM): E (E is ≦35%)
- inhibition at 1 µM (TAO2): ≤ 35%
- inhibition at 10 µM [1]: 70 to 85%
Structure (SMILES): CCOc1cc(C(=O)N2CCC(O)CC2)ccc1Nc1cc2c(cn1)N(C)C(=O)c1ccccc1N2C [Compound 52]

- Kinase inhibition % at indicated screening concentration: AMPKa1 or AMPKa2 (AMPKa1 or AMPKa2; screening concentration 1.0 μM): E (E is ≦35%)
- inhibition at 1 µM (TAO2): ≤ 35%
- inhibition at 10 µM [1]: 70 to 85%
Structure (SMILES): CN1C(=O)c2occc2N(C)c2cc(N[C@H]3CC[C@H](N)CC3)ncc21 [Compound 53]

- Kinase inhibition % at indicated screening concentration: AMPKa1 or AMPKa2 (AMPKa1 or AMPKa2; screening concentration 1.0 μM): E (E is ≦35%)
- inhibition at 1 µM (TAO2): ≤ 35%
- inhibition at 10 µM [1]: > 85%
Structure (SMILES): CCOc1cc(C(=O)NCCCN(CC)CC)ccc1Nc1cc2c(cn1)N(C)C(=O)c1ccccc1N2C [Compound 54]

- Kinase inhibition % at indicated screening concentration: AMPKa1 or AMPKa2 (AMPKa1 or AMPKa2; screening concentration 0.1 μM): E (E is ≦35%)
- inhibition at 0.1 µM (TAO2): ≤ 35%
- inhibition at 10 µM [1]: 70 to 85%
Structure (SMILES): CCOc1cc(C(=O)NCCN(C(C)C)C(C)C)ccc1Nc1cc2c(cn1)N(C)C(=O)c1ccccc1N2C [Compound 55]

- Kinase inhibition % at indicated screening concentration: AMPKa1 or AMPKa2 (AMPKa1 or AMPKa2; screening concentration 0.1 μM): E (E is ≦35%)
- inhibition at 0.1 µM (TAO2): ≤ 35%
- inhibition at 10 µM [1]: > 85%
Structure (SMILES): CCOc1cc(C(=O)N2CC[C@@H](N3CCCCC3)C2)ccc1Nc1cc2c(cn1)N(C)C(=O)c1occc1N2C [Compound 56]

- Kinase inhibition % at indicated screening concentration: AMPKa1 or AMPKa2 (AMPKa1 or AMPKa2; screening concentration 1.0 μM): E (E is ≦35%)
- inhibition at 1 µM (TAO2): ≤ 35%
- inhibition at 10 µM [1]: < 70%
Structure (SMILES): CCOc1cc(C(=O)NCC2CC2)ccc1Nc1cc2c(cn1)N(C)C(=O)c1ccccc1N2C [Compound 57]

- Kinase inhibition % at indicated screening concentration: AMPKa1 or AMPKa2 (AMPKa1 or AMPKa2; screening concentration 1.0 μM): E (E is ≦35%)
- inhibition at 1 µM (TAO2): ≤ 35%
- inhibition at 10 µM [1]: > 85%
Structure (SMILES): CCOc1cc(C(=O)N2CCC(N3CCN(C)CC3)CC2)ccc1Nc1cc2c(cn1)N(C)C(=O)c1ccccc1N2C [Compound 61]

- Kinase inhibition % at indicated screening concentration: AMPKa1 or AMPKa2 (AMPKa1 or AMPKa2; screening concentration 1.0 μM): E (E is ≦35%)
- inhibition at 1 µM (TAO2): ≤ 35%
- inhibition at 10 µM [1]: 70 to 85%
Structure (SMILES): CCOc1cc(C(=O)N2CCNCC2)ccc1Nc1cc2c(cn1)N(C)C(=O)c1ccccc1N2C [Compound 62]

- Kinase inhibition % at indicated screening concentration: AMPKa1 or AMPKa2 (AMPKa1 or AMPKa2; screening concentration 1.0 μM): E (E is ≦35%)
- inhibition at 1 µM (TAO2): ≤ 35%
- inhibition at 10 µM [1]: 70 to 85%
Structure (SMILES): CCOc1cc(C(=O)N2CCC(OC)CC2)ccc1Nc1cc2c(cn1)N(C)C(=O)c1ccccc1N2C [Compound 63]
